Here are results for six molecules from PubChem BioAssay AID1918940 (Molecular Pharmacology Branch, DTP, NCI, 2023).

The experiment has as its system NCI-H211 complex spheroid viability. As to the kind of experiment: Anticancer human tumor NCI-H211 cell line growth inhibition [LSD1].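 For all read-outs here: luminescent viability read after seven days of drug exposure.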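 For viability, T/C: 100% = DMSO vehicle control viability.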 Conditions: for viability, T/C: stronger effect = lower value. A digest of the protocol: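 Multicellular complex spheroids of tumor cells with human endothelial cells (HUVEC) and mesenchymal stem cells; the LSD1 inhibitor iadademstat was combined with standard-of-care or investigational agents. Top concentration at or near clinical Cmax, half-log dilutions; final DMSO ≤0.25%.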

The mark [1] stands for this setting: curve of first compound, second compound 0.1 µM.
The mark [2] stands for this setting: curve of first compound, second compound 0.316 µM.
Setting [3] is: curve of first compound, second compound 1 µM.
Setting [4] is: curve of first compound, second compound 3.16 µM.
Setting [5] is: curve of first compound, second compound 10 µM.
Where [6] appears, read: second compound 0.1 µM, first compound 0.0316 µM.
Where [7] appears, read: second compound 0.1 µM, first compound 0.1 µM.
The mark [8] stands for this setting: second compound 0.316 µM, first compound 0.0316 µM.
Where [9] appears, read: second compound 0.316 µM, first compound 0.1 µM.
The mark [10] stands for this setting: second compound 1 µM, first compound 0.0316 µM.
The mark [11] stands for this setting: second compound 1 µM, first compound 0.1 µM.
The mark [12] stands for this setting: second compound 3.16 µM, first compound 0.0316 µM.
Where [13] appears, read: second compound 3.16 µM, first compound 0.1 µM.
[14] abbreviates: second compound 10 µM, first compound 0.0316 µM.
Setting [15] is: second compound 10 µM, first compound 0.1 µM.

Where “and” joins values, the source holds several entries; their conditions need not be identical. Identical values can stand only once.

The IC50 is the concentration at which inhibition is half-maximal. Usually viability, T/C stands for the result in the treated group divided by that in the control group, in per cent. Consider `CC[C@@]1(O)C(=O)OCc2c1cc1n(c2=O)Cc2cc3c(CN(C)C)c(O)ccc3nc2-1` + NC1CCC(NC2CC2c2ccccc2)CC1, for which the IC50 was 0.337 nM under setting [1]; 0.355 nM under setting [2]; 0.329 nM under setting [3]; less than 0.316 nM under setting [4]; less than 0.316 nM under setting [5]. Also, the viability, T/C is 52.3% (second compound 0.1 µM, first compound 0.000316 µM); 11.6% (second compound 0.1 µM, first compound 0.001 µM); 2.63% (second compound 0.1 µM, first compound 0.00316 µM); 7.01% (second compound 0.1 µM, first compound 0.01 µM); 1.98% under setting [6]; 1.11% under setting [7]. The viability, T/C was 54.4% (second compound 0.316 µM, first compound 0.000316 µM); 11.1% (second compound 0.316 µM, first compound 0.001 µM); 1.88% (second compound 0.316 µM, first compound 0.00316 µM); 2.29% (second compound 0.316 µM, first compound 0.01 µM); 2.33% under setting [8]; 1.04% under setting [9]. The viability, T/C is, setting by setting: (second compound 1 µM, first compound 0.000316 µM) 51.4%; (second compound 1 µM, first compound 0.001 µM) 10.3%; (second compound 1 µM, first compound 0.00316 µM) 3.14%; (second compound 1 µM, first compound 0.01 µM) 2.71%; under setting [10], 7%; under setting [11], 1.06%. Further, the viability, T/C is 49% (second compound 3.16 µM, first compound 0.000316 µM); 9.4% (second compound 3.16 µM, first compound 0.001 µM); 2.42% (second compound 3.16 µM, first compound 0.00316 µM); 1.93% (second compound 3.16 µM, first compound 0.01 µM); 1.88% under setting [12]; 1.01% under setting [13]. For the same molecule, the viability, T/C runs as follows: (second compound 10 µM, first compound 0.000316 µM) 28.7%; (second compound 10 µM, first compound 0.001 µM) 6.59%; (second compound 10 µM, first compound 0.00316 µM) 1.13%; (second compound 10 µM, first compound 0.01 µM) 1.34%; under setting [14], 0.81%; under setting [15], 0.51%.

`CC1COCCN1c1cc(-c2ccnn2C)c2ccnc(-c3ccn[nH]3)c2n1` (stereo not drawn): the viability, T/C is 68.4% and 38.3% (compound 0.00316 µM); 21.5% and 14% (compound 0.01 µM); 4.05% and 7.88% (compound 0.0316 µM); 2.34% and 6.02% (compound 0.1 µM); 2.16% and 5.04% (compound 0.316 µM); 2.28% and 5.77% (compound 1 µM). For the same molecule, the 50% inhibitory concentration (IC50) (curve of compound) is 4.96 nM and < 3.16 nM.

As to `NS(=O)(=O)OCC1CC(n2ccc3c(NC4CCc5ccccc54)ncnc32)CC1O` (stereo not drawn), the viability, T/C was 27% and 23.2% (compound 0.00949 µM); 11.8% and 10.5% (compound 0.03 µM); 2.66% and 3.81% (compound 0.0949 µM); 6.35% and 1.26% (compound 0.3 µM); 0.58% and 0.97% (compound 0.949 µM); 0.31% and 0.53% (compound 3 µM). The concentration for half-maximal inhibition (IC50) (curve of compound) was less than 9.49 nM.

In the case of `O=C(C=Cc1cccc(S(=O)(=O)Nc2ccccc2)c1)NO`, the viability, T/C runs as follows: (compound 0.00949 µM) 28.4% and 18.3%; (compound 0.03 µM) 3.38% and 8.21%; (compound 0.0949 µM) 2.69% and 7.91%; (compound 0.3 µM) 2.15% and 6.02%; (compound 0.949 µM) 0.94% and 1.35%; (compound 3 µM) 0.17% and 0.22%. Besides, where the note is “curve of compound”, the IC50 is less than 9.49 nM.

As to `CC1COCCN1c1cc(C2(S(C)(=N)=O)CC2)nc(-c2ccnc3[nH]ccc23)n1` (stereo not drawn) + NC1CCC(NC2CC2c2ccccc2)CC1, the 50% inhibitory concentration (IC50) is, setting by setting: under setting [1], 331 nM; under setting [2], 184 nM; under setting [3], 297 nM; under setting [4], 188 nM; under setting [5], less than 31.6 nM. Moreover, the viability, T/C is, setting by setting: under setting [6], 67.7%; under setting [7], 64.1%; (second compound 0.1 µM, first compound 0.316 µM) 51.6%; (second compound 0.1 µM, first compound 1 µM) 16.1%; (second compound 0.1 µM, first compound 3.16 µM) 3.34%; (second compound 0.1 µM, first compound 10 µM) 2.31%. Also, the viability, T/C was 79.6% under setting [8]; 63% under setting [9]; 38.7% (second compound 0.316 µM, first compound 0.316 µM); 13.6% (second compound 0.316 µM, first compound 1 µM); 3.19% (second compound 0.316 µM, first compound 3.16 µM); 2.33% (second compound 0.316 µM, first compound 10 µM). Besides, the viability, T/C reads like this: under setting [10], 66.4%; under setting [11], 67.5%; (second compound 1 µM, first compound 0.316 µM) 48.4%; (second compound 1 µM, first compound 1 µM) 16.4%; (second compound 1 µM, first compound 3.16 µM) 3.53%; (second compound 1 µM, first compound 10 µM) 2.09%. Further, the viability, T/C under setting [12] is 66.5%; the viability, T/C under setting [13] is 55.5%; the viability, T/C (second compound 3.16 µM, first compound 0.316 µM) is 44.5%; the viability, T/C (second compound 3.16 µM, first compound 1 µM) was 17.2%; the viability, T/C (second compound 3.16 µM, first compound 3.16 µM) was 2.59%; the viability, T/C (second compound 3.16 µM, first compound 10 µM) was 1.55%. Moreover, the viability, T/C by setting is: under setting [14], 40.9%; under setting [15], 39%; (second compound 10 µM, first compound 0.316 µM) 25.4%; (second compound 10 µM, first compound 1 µM) 9.13%; (second compound 10 µM, first compound 3.16 µM) 1.75%; (second compound 10 µM, first compound 10 µM) 1.04%.

As for `COc1ccc([C@@H](O)c2cc(-c3ncnc4cc(N5CCOCC5)ccc34)c(F)cc2Cl)nn1`, the viability, T/C runs as follows: (compound 0.0316 µM) 108% and 89.2%; (compound 0.1 µM) 96.5% and 86.3%; (compound 0.316 µM) 93.7% and 94.2%; (compound 1 µM) 103% and 87.4%; (compound 3.16 µM) 70.8% and 76.6%; (compound 10 µM) 10.4% and 8.12%. The concentration for half-maximal inhibition (IC50) (curve of compound) was 4700 nM and 4950 nM.
